According to PubChem BioAssay AID1745844 (Carcinogenic Potency Database (CPDB), 2022):
Activity calls are given as the source filed them. The rule behind the calls is not given here.

Test system: rodent lifetime carcinogenesis bioassay, tumor incidence TD50
Test: chronic cancer bioassays in animals – CPDB, compiled studies (AID 1745844)

`Cc1ncc[nH]1` gave a TD50 (mouse, strain B6C3F1, females, in feed, site: any site (literature study), lesion: several types, types named in the paper, dosed 104 weeks, study length 104 weeks) of 729 mg/kg/day, a TD50 (mouse, strain B6C3F1, females, in feed, site: liver, lesion: hepatocellular adenoma + hepatoblastoma + hepatocellular carcinoma, dosed 104 weeks, study length 104 weeks) of 1620 mg/kg/day and a TD50 (mouse, strain B6C3F1, females, in feed, site: liver, lesion: hepatocellular adenoma, dosed 104 weeks, study length 104 weeks) of 1380 mg/kg/day. It also gave a TD50 (mouse, strain B6C3F1, males, in feed, site: any site (literature study), lesion: several types, types named in the paper, dosed 104 weeks, study length 104 weeks) of 866 mg/kg/day, a TD50 (mouse, strain B6C3F1, males, in feed, site: liver + thyroid gland, lesion: hepatocellular adenoma + hepatocellular carcinoma + follicular-cell adenoma, dosed 104 weeks, study length 104 weeks) of 378 mg/kg/day and a TD50 (mouse, strain B6C3F1, males, in feed, site: liver, lesion: hepatocellular adenoma + hepatoblastoma + hepatocellular carcinoma, dosed 104 weeks, study length 104 weeks) of 546 mg/kg/day. The TD50 (mouse, strain B6C3F1, males, in feed, site: liver, lesion: hepatocellular adenoma + hepatocellular carcinoma, dosed 104 weeks, study length 104 weeks) was 546 mg/kg/day, the TD50 (mouse, strain B6C3F1, males, in feed, site: liver, lesion: hepatocellular adenoma, dosed 104 weeks, study length 104 weeks) was 648 mg/kg/day and the TD50 (mouse, strain B6C3F1, males, in feed, site: liver, lesion: hepatocellular carcinoma, dosed 104 weeks, study length 104 weeks) was 378 mg/kg/day. For the same molecule, the TD50 (mouse, strain B6C3F1, males, in feed, site: thyroid gland, lesion: follicular-cell adenoma, dosed 104 weeks, study length 104 weeks) was 1810 mg/kg/day, the TD50 (rat, strain Fischer 344, females, in feed, site: any site (literature study), lesion: several types, types named in the paper, dosed 105 weeks, study length 105 weeks) was 131 mg/kg/day and the TD50 (rat, strain Fischer 344, females, in feed, site: liver, lesion: hepatocellular adenoma + hepatoblastoma + hepatocellular carcinoma, dosed 105 weeks, study length 105 weeks) was 2000 mg/kg/day. The TD50 (rat, strain Fischer 344, females, in feed, site: liver, lesion: hepatocellular adenoma, dosed 105 weeks, study length 105 weeks) was 2000 mg/kg/day, the TD50 (rat, strain Fischer 344, females, in feed, site: thyroid gland, lesion: follicular-cell adenoma + follicular-cell carcinoma, dosed 105 weeks, study length 105 weeks) was 882 mg/kg/day and the TD50 (rat, strain Fischer 344, females, in feed, site: thyroid gland, lesion: follicular-cell adenoma, dosed 105 weeks, study length 105 weeks) was 2100 mg/kg/day. The TD50 (rat, strain Fischer 344, females, in feed, site: thyroid gland, lesion: follicular-cell carcinoma, dosed 105 weeks, study length 105 weeks) was 1380 mg/kg/day, the TD50 (rat, strain Fischer 344, males, in feed, site: any site (literature study), lesion: several types, types named in the paper, dosed 104 weeks, study length 104 weeks) was 303 mg/kg/day and the TD50 (rat, strain Fischer 344, males, in feed, site: liver, lesion: hepatocellular adenoma + hepatoblastoma + hepatocellular carcinoma, dosed 104 weeks, study length 104 weeks) was 663 mg/kg/day. The TD50 (rat, strain Fischer 344, males, in feed, site: liver, lesion: hepatocellular adenoma + hepatocellular carcinoma, dosed 104 weeks, study length 104 weeks) was 663 mg/kg/day, the TD50 (rat, strain Fischer 344, males, in feed, site: pancreatic islets, lesion: islet-cell adenoma, dosed 104 weeks, study length 104 weeks) was 1010 mg/kg/day and the TD50 (rat, strain Fischer 344, males, in feed, site: skin, lesion: basal-cell carcinoma + keratoacanthoma + trichoepithelioma, dosed 104 weeks, study length 104 weeks) was 624 mg/kg/day. For the same molecule, the TD50 (rat, strain Fischer 344, males, in feed, site: thyroid gland, lesion: follicular-cell adenoma + follicular-cell carcinoma, dosed 104 weeks, study length 104 weeks) was 854 mg/kg/day.

With `CCN(CC)C(=O)c1cccc(C)c1` the TD50 (mouse, strain Charles River CD1, females, in feed, site: liver, lesion: hepatocellular adenoma, dosed 78 weeks, study length 78 weeks) was 150000 mg/kg/day (inactive), the TD50 (mouse, strain Charles River CD1, females, in feed, site: liver, lesion: hepatocellular carcinoma, dosed 78 weeks, study length 78 weeks) was 87000 mg/kg/day (inactive) and the TD50 (mouse, strain Charles River CD1, females, in feed, site: lung, lesion: alveolar/bronchiolar adenoma, dosed 78 weeks, study length 78 weeks) was 14500 mg/kg/day (inactive). The TD50 (mouse, strain Charles River CD1, males, in feed, site: liver, lesion: hepatocellular adenoma, dosed 78 weeks, study length 78 weeks) was 2580 mg/kg/day (inactive), the TD50 (mouse, strain Charles River CD1, males, in feed, site: liver, lesion: hepatocellular carcinoma, dosed 78 weeks, study length 78 weeks) was 11500 mg/kg/day (inactive) and the carcinogen call (mouse, strain Charles River CD1, males, in feed, site: lung, lesion: alveolar/bronchiolar adenoma, dosed 78 weeks, study length 78 weeks) was “negative (inactive)”. The TD50 (rat, strain Charles River CD (Sprague-Dawley), females, in feed, site: liver, lesion: hepatocellular adenoma, dosed 104 weeks, study length 104 weeks) was 16700 mg/kg/day (inactive), the carcinogen call (rat, strain Charles River CD (Sprague-Dawley), females, in feed, site: liver, lesion: hepatocellular carcinoma, dosed 104 weeks, study length 104 weeks) was “negative (inactive)” and the TD50 (rat, strain Charles River CD (Sprague-Dawley), males, in feed, site: liver, lesion: hepatocellular adenoma, dosed 104 weeks, study length 104 weeks) was 3390 mg/kg/day (inactive). The carcinogen call (rat, strain Charles River CD (Sprague-Dawley), males, in feed, site: liver, lesion: hepatocellular carcinoma, dosed 104 weeks, study length 104 weeks) was “negative (inactive)”.

With `CN(C)C(=S)S[Se](SC(=S)N(C)C)(SC(=S)N(C)C)SC(=S)N(C)C` the carcinogen call (mouse, strain B6AKF1, females, oral dosing, site: any site (literature study), lesion: several types, types named in the paper, dosed 76 weeks, study length 76 weeks) was “negative (inactive)”, the carcinogen call (mouse, strain B6AKF1, females, oral dosing, site: liver, lesion: hepatoma, dosed 76 weeks, study length 76 weeks) was “negative (inactive)” and the carcinogen call (mouse, strain B6AKF1, females, oral dosing, site: lung, lesion: adenoma, dosed 76 weeks, study length 76 weeks) was “negative (inactive)”. For the same molecule, the carcinogen call (mouse, strain B6AKF1, males, oral dosing, site: any site (literature study), lesion: several types, types named in the paper, dosed 76 weeks, study length 76 weeks) was “negative (inactive)”, the carcinogen call (mouse, strain B6AKF1, males, oral dosing, site: liver, lesion: hepatoma, dosed 76 weeks, study length 76 weeks) was “negative (inactive)” and the carcinogen call (mouse, strain B6AKF1, males, oral dosing, site: lung, lesion: adenoma, dosed 76 weeks, study length 76 weeks) was “negative (inactive)”. For the same molecule, the carcinogen call (mouse, strain B6C3F1, females, oral dosing, site: any site (literature study), lesion: one or several types, types not named, dosed 76 weeks, study length 76 weeks) was “negative (inactive)”, the carcinogen call (mouse, strain B6C3F1, females, oral dosing, site: liver, lesion: hepatoma, dosed 76 weeks, study length 76 weeks) was “negative (inactive)” and the carcinogen call (mouse, strain B6C3F1, females, oral dosing, site: lung, lesion: several types, types named in the paper, dosed 76 weeks, study length 76 weeks) was “negative (inactive)”. For the same molecule, the TD50 (mouse, strain B6C3F1, males, oral dosing, site: any site (literature study), lesion: several types, types named in the paper, dosed 76 weeks, study length 76 weeks) was 5.88 mg/kg/day (inactive), the TD50 (mouse, strain B6C3F1, males, oral dosing, site: liver, lesion: hepatoma, dosed 76 weeks, study length 76 weeks) was 26 mg/kg/day (inactive) and the carcinogen call (mouse, strain B6C3F1, males, oral dosing, site: lung, lesion: several types, types named in the paper, dosed 76 weeks, study length 76 weeks) was “negative (inactive)”.

`CCCCC(CC)COP(=O)(OCC(CC)CCCC)OCC(CC)CCCC` (centres undefined) was tested, and the TD50 (mouse, strain B6C3F1, females, by gavage, site: liver, lesion: hepatocellular adenoma + hepatocellular carcinoma + neoplastic nodule, dosed 103 weeks, study length 104 weeks) was 2220 mg/kg/day, the TD50 (mouse, strain B6C3F1, females, by gavage, site: liver, lesion: hepatocellular adenoma + hepatocellular carcinoma, dosed 103 weeks, study length 104 weeks) was 2220 mg/kg/day and the TD50 (mouse, strain B6C3F1, females, by gavage, site: liver, lesion: hepatocellular carcinoma, dosed 103 weeks, study length 104 weeks) was 2560 mg/kg/day. The TD50 (mouse, strain B6C3F1, females, by gavage, site: lung, lesion: alveolar/bronchiolar adenoma + alveolar/bronchiolar carcinoma, dosed 103 weeks, study length 104 weeks) was 13700 mg/kg/day, the carcinogen call (mouse, strain B6C3F1, males, by gavage, site: any site (literature study), lesion: several types, types named in the paper, dosed 103 weeks, study length 104 weeks) was “negative (inactive)” and the TD50 (mouse, strain B6C3F1, males, by gavage, site: liver, lesion: hepatocellular adenoma + hepatocellular carcinoma + neoplastic nodule, dosed 103 weeks, study length 104 weeks) was 9000 mg/kg/day. The TD50 (rat, strain Fischer 344, females, by gavage, site: any site (literature study), lesion: several types, types named in the paper, dosed 103 weeks, study length 104 weeks) was 230000 mg/kg/day (inactive), the TD50 (rat, strain Fischer 344, males, by gavage, site: adrenal gland, lesion: pheochromocytoma + pheochromocytoma, malignant, dosed 103 weeks, study length 104 weeks) was 5290 mg/kg/day and the TD50 (rat, strain Fischer 344, males, by gavage, site: adrenal gland, lesion: pheochromocytoma, dosed 103 weeks, study length 104 weeks) was 5290 mg/kg/day. The TD50 (rat, strain Fischer 344, males, by gavage, site: any site (literature study), lesion: several types, types named in the paper, dosed 103 weeks, study length 104 weeks) was 14200 mg/kg/day, the TD50 (rat, strain Fischer 344, males, by gavage, site: thyroid gland + thyroid follicle, lesion: follicular-cell adenoma + cystadenoma, NOS, dosed 103 weeks, study length 104 weeks) was 28000 mg/kg/day and the TD50 (rat, strain Fischer 344, males, by gavage, site: thyroid gland + thyroid follicle, lesion: follicular-cell adenoma + follicular-cell carcinoma + cystadenoma, NOS, dosed 103 weeks, study length 104 weeks) was 16700 mg/kg/day.

`FC(F)(F)CCl` gave a TD50 (rat, strain Alpk:APfSD, females, by gavage, site: uterus, lesion: adenocarcinoma, dosed 52 weeks, study length 125 weeks) of 160 mg/kg/day and a TD50 (rat, strain Alpk:APfSD, males, by gavage, site: testis, lesion: interstitial-cell tumor, dosed 52 weeks, study length 125 weeks) of 60 mg/kg/day.

`CCN(Cc1cccc(S(=O)(=O)O)c1)c1ccc(C(=C2C=CC(=[N+](CC)Cc3cccc(S(=O)(=O)O)c3)C=C2)c2ccccc2S(=O)(=O)[O-])cc1` was tested, and the carcinogen call (mouse, strain Charles River CD1, females, in feed, site: liver, lesion: hemangioma, dosed 104 weeks, study length 104 weeks) was “negative (inactive)”, the TD50 (mouse, strain Charles River CD1, females, in feed, site: lung, lesion: adenocarcinoma, dosed 104 weeks, study length 104 weeks) was 372000 mg/kg/day (inactive) and the carcinogen call (mouse, strain Charles River CD1, females, in feed, site: lung, lesion: alveolar-cell adenoma, dosed 104 weeks, study length 104 weeks) was “negative (inactive)”. For the same molecule, the TD50 (mouse, strain Charles River CD1, females, in feed, site: lung, lesion: alveolar-cell carcinoma, dosed 104 weeks, study length 104 weeks) was 607000 mg/kg/day (inactive), the carcinogen call (mouse, strain Charles River CD1, females, in feed, site: lung, lesion: bronchiolar adenocarcinoma, dosed 104 weeks, study length 104 weeks) was “negative (inactive)” and the TD50 (mouse, strain Charles River CD1, females, in feed, site: lung, lesion: bronchiolar adenoma, dosed 104 weeks, study length 104 weeks) was 856000 mg/kg/day (inactive). For the same molecule, the carcinogen call (mouse, strain Charles River CD1, males, in feed, site: liver, lesion: hemangiosarcoma, dosed 104 weeks, study length 104 weeks) was “negative (inactive)”, the carcinogen call (mouse, strain Charles River CD1, males, in feed, site: liver, lesion: hepatocellular carcinoma, dosed 104 weeks, study length 104 weeks) was “negative (inactive)” and the TD50 (mouse, strain Charles River CD1, males, in feed, site: lung, lesion: adenocarcinoma, dosed 104 weeks, study length 104 weeks) was 293000 mg/kg/day (inactive). The carcinogen call (mouse, strain Charles River CD1, males, in feed, site: lung, lesion: alveogenic adenocarcinoma, dosed 104 weeks, study length 104 weeks) was “negative (inactive)”, the carcinogen call (mouse, strain Charles River CD1, males, in feed, site: lung, lesion: alveolar-cell adenoma, dosed 104 weeks, study length 104 weeks) was “negative (inactive)” and the carcinogen call (mouse, strain Charles River CD1, males, in feed, site: lung, lesion: alveolar-cell carcinoma, dosed 104 weeks, study length 104 weeks) was “negative (inactive)”. For the same molecule, the TD50 (mouse, strain Charles River CD1, males, in feed, site: lung, lesion: bronchiolar adenocarcinoma, dosed 104 weeks, study length 104 weeks) was 343000 mg/kg/day (inactive), the TD50 (mouse, strain Charles River CD1, males, in feed, site: lung, lesion: bronchiolar adenoma, dosed 104 weeks, study length 104 weeks) was 91100 mg/kg/day (inactive) and the carcinogen call (rat, strain Osborne-Mendel, both sexes, in feed, site: any site (literature study), lesion: several types, types named in the paper, dosed 104 weeks, study length 104 weeks) was “negative (inactive)”. It also gave a TD50 (rat, strain Osborne-Mendel, both sexes, in feed, site: liver, lesion: hepatoma, dosed 104 weeks, study length 104 weeks) of 62100 mg/kg/day.
